The values below come from patent US20220274967A1, “BCAT MODULATION” (Icagen, LLC, priority 2019, published 2022).

The subject of assay [1] is GM00371 cells. Briefly: Viability assay (Cell titer glo) in the 3-HIB assay. Format: cell-based, human. The conditions noted are these: Homo sapiens, 24 h, read-out: 3HIB INHIBITION IC50 (μM) MEAN GM00371 cells Viablility Assay. How it is done: Cell Plating: Cells (Coriell Institute GM00371 cells) were plated (96-well clear bottom sterile plate; Greiner 655098) at 10,000 cells/0.1 mL in Eagle's minimum essential medium (EMEM)/15% FBS (Gibco 16000-044) with a Combi dispenser in a cell culture hood and incubated at 37° C. and 5% CO2 overnight.
Compound Dilution: Compound were prepared as 33.3× intermediate dilution in DMSO in 96 well round polystyrene plates. For 30 μM final maximum start with 30 μL of 10 mM in DMSO. 10-12 1:3 serial dilutions were prepared from left to right (20 μL+40 μL DMSO). A 10× secondary dilution was prepare in EMEM by taking 7.5 μL 33.3× and transfer to replicate 96 well round polystyrene plates and then adding 242.5 μL EMEM A 1× final dilution in EMEM was prepared by taking 50 μL 10× dilution and transferring to replicate 96 well polypropylene assay block (Costar 3956) and adding 450 μL EMEM A control was prepared for maximal compound inhibition by taking 20 μL 10 mM Reference Compound A and adding 40 μL DMSO for a concentration of 3.3 mM To 7.5 μL of the 3.3 mM Reference Compound A solution and added 242.5 μL EMEM to make a 100 μM solution. The subsequent Reference Compound A solution was diluted with EMEM to achieve a final concentration of 10 μM. The structure of Reference Compound A is:
A control was prepared for maximal compound toxicity by taking 7.5 μL Reference Compound B and 242.5 μL EMEM to make […]. 50 μL of that 100 μM Reference Compound B solution was combined with 450 μL EMEM to achieve a concentration of 30 μM. The structure of Reference Compound B is
Compound Treatment: Media was aspirated from the cells and 100 μL of D-PBS (ThermoFisher 14190144) was added and then removed. 100 μL of diluted compound was added to the cells in the place and the cells were incubated at 37° C. and 5% CO2 for 24 hours.
Viability Assay: To the cells remaining in the plate 25 μL D-PBS and 25 μL Cell titer glo reagent (Promega G7572). The plate was placed on a shaker for 2 minutes, incubated at room temperature in the dark and then read on a Clariostar microplate reader.

Assay [2] concerns the target T1, BCAT1 (Homo sapiens, UniProt P54687).
T1 sequence (P54687 1-386): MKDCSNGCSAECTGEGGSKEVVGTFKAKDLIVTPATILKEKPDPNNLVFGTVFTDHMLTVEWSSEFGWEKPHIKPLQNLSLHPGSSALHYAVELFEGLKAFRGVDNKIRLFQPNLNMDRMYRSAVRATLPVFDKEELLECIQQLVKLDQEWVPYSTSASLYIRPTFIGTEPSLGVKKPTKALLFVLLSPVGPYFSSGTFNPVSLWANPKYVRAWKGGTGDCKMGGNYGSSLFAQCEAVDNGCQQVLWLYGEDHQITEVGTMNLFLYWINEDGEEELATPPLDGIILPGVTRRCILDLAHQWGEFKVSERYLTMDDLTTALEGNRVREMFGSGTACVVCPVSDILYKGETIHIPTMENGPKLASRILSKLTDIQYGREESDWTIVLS
Put plainly: BCAT1 enzyme inhibition (human), Glutamate Glo luminescence. The format is biochemical. The method, then:
The BCAT1 inhibitory activity of selected compounds of the present disclosure were also evaluated. Compounds were prepared as up to 10 mM stock solutions generally using DMSO as the vehicle. 10-point dose response curves were generated using the Echo-550 (Labcyte) acoustic dispenser. Compound source plates ([…]) were made by serially diluting compound stocks to create 1 mM, 0.1 mM, and 0.01 mM solutions in DMSO into Echo certified LDV plates. The Echo then serially spotted 100% DMSO stock solutions into source dose response plates to generate a semi-log fold dilution scheme. 100% DMSO was added to the spotted dose response plates to bring the final volume to 5 μL, creating a 333× stock plate. 120 nL of the dose response stock plate was then spotted into the assay plate. 10 μL of assay buffer (50 mM Tris with 0.05% TWEEN-20) was then added to the plates resulting in a 4× working concentration in the assay plate. Final assay test concentration range was 3 μM to 0.0001 μM with a final DMSO concentration of 0.3%.
BCAT1 enzyme stock was first diluted to a 4× working concentration of 0.24 μg/mL in assay buffer (final assay concentration is 0.06 ug/ml). 10 μL of the 4×BCAT1 solution was then added to the previously prepared assay plate containing test compound or controls, and incubated at room temperature, protected from light, for either 10 or 60 minutes. After the compound incubation period, 20 μL of assay buffer plus 2× substrate is added to all wells (Final assay concentration of substrates is 300 μM L-leucine and 250 μM alpha-ketoglutaric acid). Enzyme reaction was then incubated for 10 minutes at room temperature. After the 10 minute incubation, the enzymatic reaction was halted with the addition of 5 μL of 0.6N HCl and incubated for 1 min. 5 μL of 1M Tris (pH 8.0) was then added to neutralize pH. 12.5 μL of the quenched assay volume was then transferred to a white, 384 well plate and 12.5 μL of Glutamate detection reagent was added (detection reagent prepared per Promega Glutamate Glo kit instructions). Plates were then incubated for 30 minutes at room temperature, protected from light. After glutamate detection incubation period, luminescence was read on BMG Novostar and relative light units was measured and exported for analysis.
Compound modulation of BCAT1 enzymatic activity was determined as follows. IC50 values were calculated in ActivityBase, using a 4-parameter fit equation. Data was normalized to maximum inhibition form the reference agent VS558CSA (at 10 μM). Relative light units were exported for analysis and % inhibition values for each well were calculated using the following formula: […]

The target in assay [3] is T2, BCAT2 (Homo sapiens, UniProt O15382).
T2 sequence (O15382 28-392): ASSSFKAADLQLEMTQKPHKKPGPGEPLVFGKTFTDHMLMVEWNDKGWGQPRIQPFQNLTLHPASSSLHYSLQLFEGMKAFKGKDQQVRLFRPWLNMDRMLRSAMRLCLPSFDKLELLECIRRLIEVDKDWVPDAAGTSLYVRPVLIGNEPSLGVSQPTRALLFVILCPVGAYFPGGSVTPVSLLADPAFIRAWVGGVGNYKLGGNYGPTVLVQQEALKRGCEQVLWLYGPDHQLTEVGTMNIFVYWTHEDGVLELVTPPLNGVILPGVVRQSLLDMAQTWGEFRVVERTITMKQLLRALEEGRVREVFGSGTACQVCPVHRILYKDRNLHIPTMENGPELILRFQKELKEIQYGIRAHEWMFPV
Put plainly: BCAT2 enzyme inhibition (human). The format is biochemical. How it is done: In further embodiments, the functional modulation of BCAT2 is assayed using a cell-free assay. In various embodiments, the cell-free assay is an enzyme-coupled fluorescent assay. For example, the disclosure contemplates use of an assay that monitors the production of L-glutamate from branch-chain amino acids and α-ketoglutarate through the coupling of hBCATm activity to two additional enzymes, L-Glutamate Oxidase (L-GOx) and Horseradish Peroxidase (HRP). Specifically, L-GOx catabolizes L-glutamate to generate α-ketoglutarate and […], the latter being utilized by HRP and leading to the formation of fluorescent resorufin from the redox-sensitive dye Amplex Red. In some embodiments, the test compound is classified as a candidate compound if a decrease in L-glutamate is measured. In further embodiments, the test compound is classified as a candidate compound if a decrease in α-ketoglutarate is measured.

Usually IC50 stands for the point on the concentration scale where inhibition reaches its midpoint.

`CNC(=O)c1cc2nc(-c3ccccc3F)n([C@H]3CCC[C@@H](NC(=O)c4ccc(Cl)s4)C3)c2cc1F` [Compound 206]: the IC50 in assay [1] was 0.1 to 0.5 µM; in assay [2] it was less than 100 nM; in assay [3] it was less than 100 nM.
On to `O=C(N[C@@H]1CCC[C@H](n2c(-c3ccccc3F)nc3cccnc32)C1)c1ccc(Br)s1` [Compound 285], for which the IC50 was 0.5 to 1 µM in assay [1], 500 to 1000 nM in assay [2] and less than 100 nM in assay [3].
In the case of `CNC(=O)c1ccc2c(c1)nc(-c1ccccn1)n2[C@H]1C[C@@H](NC(=O)c2ccc(Br)s2)CC(F)(F)C1` [Compound 239], the IC50 in assay [1] is 0.1 to 0.5 µM; in assay [2], not below 1000 nM; in assay [3], 100 to 500 nM.
On to `CNC(=O)c1ccc2c(c1)nc(-c1ccccc1F)n2[C@H]1CCC[C@@H](C(=O)Nc2ccccc2)C1` [Compound 202], for which the values for the IC50 in assay [2] and in assay [3] were not below 1000 nM and more than 1000 nM, respectively.
The like results for `O=C(N[C@@H]1CCC[C@H](n2c(-c3ncccc3F)nc3ccncc32)C1)c1ccc(Br)s1` [Compound 298] were, in that order, 500 to 1000 nM and less than 100 nM.
For `O=C(N[C@@H]1CCC[C@H](n2c(-c3ccccn3)nc3cnc(F)cc32)C1)c1ccc(Br)s1` [Compound 302], the IC50 is 500 to 1000 nM in assay [2] and less than 100 nM in assay [3].
In the same order, the values of `CCCNC(=O)c1ccc2c(c1)nc(-c1ccccn1)n2[C@@H]1CCC[C@H](NC(=O)c2ccc(Br)s2)C1` [Compound 204] are not below 1000 nM and 100 to 500 nM.
The like results for `CNC(=O)c1cc2nc(-c3ccccn3)n([C@H]3CCC[C@@H](NC(=O)c4ccc(Br)s4)C3)c2cc1Cl` [Compound 238] were, in that order, not below 1000 nM and 100 to 500 nM.
In the same order, the values of `N#Cc1cc2nc(-c3ccccc3C#N)n(C3CCCC(NC(=O)c4ccc(Br)s4)C3)c2cn1` (stereo not drawn) [Compound 306] are not below 1000 nM and less than 100 nM.
As to `CNC(=O)c1ccc2c(c1)nc(-c1ccc(O)cn1)n2[C@H]1CCC[C@@H](NC(=O)c2ccc(C#N)s2)C1` [Compound 173], the IC50 is not below 1000 nM in assay [2] and more than 1000 nM in assay [3].
With `CNC(=O)c1cc2nc(-c3ncccc3F)n([C@H]3CCC[C@@H](NC(=O)c4ccc(Cl)s4)C3)c2cn1` [Compound 286, 3-((1S,3R)-3-(5-chlorothiophene-2-carboxamido)cyclohexyl)-2-(3-fluoropyridin-2-yl)-N-methyl-3H-imidazo[4,5-c]pyridine-6-carboxamide], the IC50 in assay [2] and in assay [3] was less than 100 nM in each case.
For the molecule `O=C(N[C@@H]1CCC[C@H](n2c(-c3ccccn3)nc3cccnc32)C1)c1ccc(Br)s1` [Compound 280], the IC50 in assay [2] is not below 1000 nM; in assay [3] it was 100 to 500 nM.
The like results for `CNC(=O)c1cc2nc(-c3ncccc3F)n([C@H]3CCC[C@@H](NC(=O)c4ccc(Cl)s4)C3)c2cc1Cl` [Compound 236] were, in that order, not below 1000 nM and 100 to 500 nM.
In the same order, the values of `CNC(=O)c1cc2nc(-c3ccccn3)n([C@H]3CCC[C@@H](NC(=O)c4ccc(Cl)s4)C3)c2cc1Cl` [Compound 235] are not below 1000 nM and 500 to 1000 nM.
Regarding `CNC(=O)c1ccc2c(c1)nc(-c1cccc(F)c1)n2C1CCCN(C(=O)Nc2ccc(Br)s2)C1` (stereo not drawn) [Compound 229], the results for the IC50 in assay [2] and in assay [3] were not below 1000 nM and more than 1000 nM, respectively.
The like results for `CNC(=O)c1ccn2c(C3CCCC(NC(=O)c4ccc(Br)s4)C3)c(-c3ccccc3)nc2c1` (stereo not drawn) [Compound 303] were, in that order, not below 1000 nM and 100 to 500 nM.
Take `CNC(=O)c1ccc2c(c1)nc(-c1cnccn1)n2[C@H]1CCC[C@@H](NC(=O)c2ccc(Br)s2)C1` [Compound 149]: the IC50 in assay [2] was not below 1000 nM; in assay [3], 100 to 500 nM.
In the same order, the values of `CNC(=O)c1ccc2c(c1)nc(-c1cccc(F)c1)n2C1CCCN(C(=O)Nc2cccs2)C1` (stereo not drawn) [Compound 228] are not below 1000 nM and more than 1000 nM.
The like results for `CNC(=O)c1cc2nc(-c3c(F)ccc(F)c3O)n([C@H]3CCC[C@@H](NC(=O)c4ccc(Br)s4)C3)c2cc1F` [Compound 233] were, in that order, 500 to 1000 nM and less than 100 nM.
The like results for `CNC(=O)c1cc2nc(-c3ncccc3F)n([C@H]3CCC[C@@H](NC(=O)c4ccc(Br)s4)C3)c2cc1Cl` [Compound 237] were, in that order, not below 1000 nM and 100 to 500 nM.
`CNC(=O)c1cc2nc(-c3ccccn3)n([C@H]3CCC[C@@H](NC(=O)c4ccc(Cl)s4)C3)c2cc1O` [Compound 240]: the IC50 in assay [2] is 500 to 1000 nM; in assay [3], less than 100 nM.
Regarding `CNC(=O)c1ccc2c(c1)nc(-c1ncccn1)n2[C@H]1CCC[C@@H](NC(=O)c2ccc(Br)s2)C1` [Compound 147], the IC50 in assay [2] is not below 1000 nM; in assay [3], less than 100 nM.
The like results for `CNC(=O)c1ccc2c(c1)nc(-c1ccccn1)n2[C@H]1CCC[C@@H](NC(=O)c2sc(Cl)cc2Cl)C1` [Compound 242] were, in that order, not below 1000 nM and more than 1000 nM.
The like results for `CNC(=O)c1ccc2c(c1)nc(-c1ccccn1)n2C1CCCN(C(=O)Nc2cccc(Cl)c2)C1` (stereo not drawn) [Compound 217] were, in that order, not below 1000 nM and more than 1000 nM.
